Assay results published in patent publication US5780505A, “Substituted N-arylmethylamino derivatives of cyclobutene-3, 4-diones” (American Home Products Corporation, priority 1997, dated 1998).
Where two headings read alike, the source gives them in different places.

Assays:
[1] = tested on: hypertrophied bladder (detrussor) smooth muscle; assay: Inhibition of spontaneous contractions in vivo (conscious female rats with hypertrophied bladders, cystometry); parameters: species or system Female Sprague-Dawley rats; settings: hypertrophied rat bladder model
From the text: In addition, we tested the ability of compounds to inhibit the hyperactivity of hypertrophied bladder (detrussor) smooth muscle in conscious female rats with hypertrophied bladders and thereby alleviate urinary incontinence in rats according to the following protocol described by Malmgren (A. Malmgren, K. E. Andersson, C. Sjogren, P. O. Andersson, Effects of pinacidil and Cromakalim (BRL 34915) on Bladder Function in Rats with Detrusor Instability, J. Urol. 142: 1134, 1989.):
Female Sprague-Dawley rats, ranging in weight from 190-210 g are used. Up to 25 animals are prepared each time. After developemnt of bladder hypertrophy 4-8 animals are used per test.
Compounds are dissolved in PEG-200 and administered by gastric gavage or intraveneously in a volume of 5 ml/kg. For primary screening all drugs are administered at the arbitrary dose of 10 mg/kg p.o. to groups of 4 rats.
The animals are anesthetized with halothane. Through a midline incision the bladder and urethra are exposed and a ligature of 4-0 silk is tied around the proximal urethra in the presence of a stainless steel rod (1 mm diameter) to produce a partial occlusion. The rod is then removed. The abdominal region is closed using surgical staples and each rat receives 150,000 units of bicillin C-R. The animals ar allowed six weeks to develop sufficient bladder hypertrophy. After six weeks, the ligature is removed under halothane anesthesia and a catheter (PE 60) with a cuff is placed in the dome of the bladder and secured with a purse string suture. The catheter is tunneled under the skin and exteriorized through an opening in the back of the neck. The abdominal incision is sutured and the free end of the catheter sealed. In order to prevent infections the rats receive an injection of bicillin C-R (150000 units/rat). Two days later the animals are used in cystometrical evaluations, The animals are placed in the metabolic cages and the catheter is attached (using a "T" connector) to a Statham pressure transducer (Model P23Db) and to a Harvard infusion pump. A plastic beaker attached to a force displacement transducer (Grass FTO3) is placed under the rat's cage to collect and record urine volume. Animals are allowed 15-30 min t rest before the saline infusion (20 ml/hr for 20 minutes) is started for the first cystometry period. Two hours after the first cystometry period, the rats are dosed with the vehicle or the test compound and one hour later a second cystometry is performed.
The following urodynamic variables are recorded:
Basal bladder pressure=the lowest bladder pressure during cystometry
Threshold pressure=bladder pressure immediately prior to micturition
Micturition volume=volume expelled
Micturition pressure=peak pressure during voiding
Spontaneous activity=mean amplitude of bladder pressure fluctuations during filling
Presentation of results: The mean value of each variable is calculated before and after compound administration. For each compound the changes in the variables measured are compared to the values obtained before treatment and expressed as percent inhibition. The data are also subjected to 2-way analysis of variance to determine significant (p<0.05) changes in the variable measured.
Criteria for Activity: The most characteristic finding in this rat model is spontaneous bladder contractions which develop during filling. The compounds which inhibit spontaneous contractions by at least 50% at 10 mg/kg p.o. or i.v. (arbitrary chosen dose) are considered active.

[2] = tested on: Isolated Rat Bladder Strips; assay: Inhibition of contractions in isolated rat bladder strips (KCl-enhanced contractile activity; smooth muscle relaxation); assay type: cell-based, Sprague-Dawley rats; settings: for inhibition at 30 µM: read-out: Percent inhibition at 30 μM (I)
From the text: The smooth muscle relaxing activity of the compounds of this invention was established in accordance with standard pharmaceutically accepted test procedures with representative compounds as follows:
Sprague-Dawley rats (150-200 g) are rendered unconscious by CO2 asphyxiation and then euthanized by cervical dislocation. The bladder is removed into warm (37 deg.C) physiological salt solution (PSS) of the following composition (mM): NaCl, 118.4; KCl, 4.7; CaCl2, 2.5; MgSO4, 4.7; H2 O, 1,2; NaHCO3, 24.9; KH2 PO4, 1,2; glucose, 11.1; EDTA, 0.023; gassed with […]; pH 7.4. The bladder is opened and then dut into strips 1-2 mm in width and 7-10 mm in length. The strips are subsequently suspended in a 10 mL tissue bath under an initial resting tension of 1.5 g. The strips are held in place by two surgical clips one of which is attached to a fixed hook while the other is attached to an isometric force transducer. […] The carbachol is then washed out and the tissue allowed to relax to its resting level of activity. Following a further 30 min period of recovery an additional 15 mM KCl are introduced into the tissue bath. This increase in KCl concentration results in a large increase in the amplitude of spontaneous contractions (and initiation of contractions in previously quiescent strips) superimposed upon a small increase in basal tone. Following stabilization of this enhanced level of contractile activity, incremental increases in the concentration of test compound or vehicle are introduced into the tissue bath. Contractile activity is measured for each compound or vehicle concentration during the last minute of a 30 minute challenge.
The isometric force developed by the bladder strips is measured using a […] to elicit 50% inhibition of pre-drug contractile activity (IC50 concentration) and is calculated from this concentration-response curve.

[3] = 0.5 h, isolated rat bladder strips, 15 mM additional KCl, 30 minute challenge, read-out: IC50 (50% inhibition of pre-drug contractile activity)

| SMILES | IC50 [2, 3] | other results |
| --- | --- | --- |
| CC(C)(C)Nc1c(NCc2ccc(C#N)cc2Cl)c(=O)c1=O [Example 2, 4-[(2-tert-Butylamino-3,4-dioxo-cyclobut-1-enylamino)-methyl]-3-chloro-benzonitrile] | 140 ± 20 nM | % Red (F): percent reduction in the total number of spontaneous contractions ([1]; 1 mg/kg p.o., prior lot of this compound (mp 234-236° C.)): -34 ± 11%; % Red (F): percent reduction in the total number of spontaneous contractions ([1]; 3 mg/kg p.o., prior lot of this compound (mp 234-236° C.)): -49 ± 8%; % Red (F): percent reduction in the total number of spontaneous contractions ([1]; 10 mg/kg p.o., prior lot of this compound (mp 234-236° C.)): -93 ± 3%; IC50 ([2]; Rattus norvegicus, prior lot (mp 234-236° C., softens 225° C.), n = 4, read-out: IC50 of a prior lot): 570 ± 340 nM |
| CC(Nc1c(NCc2ccc(C#N)cc2Cl)c(=O)c1=O)C(C)(C)C (stereo not shown) [Example 6, 3-Chloro-4-{[3,4-dioxo-2-(1,2,2-trimethyl-propylamino)-cyclobut-1-enylamino]-methyl}-benzonitrile] | 660 ± 200 nM | % Red (F): percent reduction in the total number of spontaneous contractions ([1]; 3 mg/kg p.o.): -51 ± 6%; % Red (F): percent reduction in the total number of spontaneous contractions ([1]; 10 mg/kg p.o.): -71 ± 3%; inhibition at 30 µM ([2]; Rattus norvegicus): 41.2% |
| Cc1ccc(CNc2c(NC(C)(C)C)c(=O)c2=O)c(C)c1 [Example 8, 3-tert-Butylamino-4-(2,4-dimethyl-benzylamino)-cyclobut-3-ene-1,2-dione] | 630 ± 150 nM | % Red (F): percent reduction in the total number of spontaneous contractions ([1]; 3 mg/kg p.o.): -38 ± 7% |
| CCc1cc(C#N)ccc1CNc1c(NC(C)(C)C)c(=O)c1=O [Example 27, 4-[(2-tert-Butylamino-3,4-dioxo-cyclobut-1-enylamino)-methyl]-3-ethyl-benzonitrile] | 240 ± 30 nM | % Red (F): percent reduction in the total number of spontaneous contractions ([1]; 10 mg/kg p.o.): -20 ± 22% |
| C[C@@H](Nc1c(NCc2ccc(C#N)cc2Cl)c(=O)c1=O)C(C)(C)C [Example 30, (R)-3-Chloro-4-{[3,4-dioxo-2-(1,2,2-trimethyl-propylamino)-cyclobut-1-enylamino]-methyl}-benzonitrile] | 180 ± 30 nM | % Red (F): percent reduction in the total number of spontaneous contractions ([1]; 3 mg/kg p.o.): -68 ± 10%; inhibition at 30 µM ([2]; Rattus norvegicus): 23% |
| CCC(C)(C)Nc1c(NCc2c(C)cc(C)cc2C)c(=O)c1=O [Example 81, 3-(1,1-Dimethyl-propylamino)-4-(2,4,6-trimethyl-benzylamino)-cyclobut-3-ene-1,2-dione] | 310 ± 80 nM |  |
| CC(C)(C)Nc1c(NCc2cc(Cl)ccc2Cl)c(=O)c1=O [Example 82, 3-tert-Butylamino-4-(2,5-dichloro-benzylamino)-cyclobut-3-ene-1,2-dione] | 680 ± 240 nM |  |
| CCC(C)(C)Nc1c(NCc2cc(Cl)ccc2Cl)c(=O)c1=O [Example 83, 3-(2.5-Dichloro-benzylamino)-4-(1,1-dimethyl-propylamino)-cyclobut-3-ene-1,2-dione] | 810 ± 320 nM |  |
| Cc1ccc(CNc2c(NC(C)(C)C)c(=O)c2=O)cc1C [Example 84, 3-tert-Butylamino-4-(3,4-dimethyl-benzylamino)-cyclobut-3-ene-1,2-dione] | 1600 ± 180 nM |  |
| CCC(C)(C)Nc1c(NCc2ccc(C)c(C)c2)c(=O)c1=O [Example 85, 3-(3A-Dimethyl-benzylamino)-4-(1,1-dimethyl-propylamino)-cyclobut-3-ene-1,2-dione] |  | inhibition at 30 µM ([2]; Rattus norvegicus): 35.1 ± 4.4% |
| Cc1cc(C)cc(CNc2c(NC(C)(C)C)c(=O)c2=O)c1 [Example 86, 3-tert-Butylamino-4-(3,5-dimethyl-benzylamino)-cyclobut-3-ene-1,2-dione] | 5100 ± 960 nM |  |
| CCC(C)(C)Nc1c(NCc2cc(C)cc(C)c2)c(=O)c1=O [Example 87, 3-(3.5-Dimethyl-benzylamino)-4-(1,1-dimethyl-propylamino)-cyclobut-3-ene-1,2-dione] |  | inhibition at 30 µM ([2]; Rattus norvegicus): 13.6 ± 8.4% |
| CCC(C)(C)Nc1c(NCc2cc(Cl)cc(Cl)c2)c(=O)c1=O [Example 88, 3-(3,5-Dichloro-benzylamino)-4-(1,1-dimethyl-propylamino)-cyclobut-3-ene-1,2-dione] | 7300 ± 6000 nM |  |
| CC(C)(C)Nc1c(NCc2cc(Cl)cc(Cl)c2)c(=O)c1=O [Example 89, 3-tert-Butylamino-4-(3.5-dichloro-benzylamino)-cyclobut-3-ene-1,2-dione] | 2300 ± 850 nM |  |
| Cc1ccc(CNc2c(NC(C)(C)C)c(=O)c2=O)cc1Cl [Example 90, 3-tert-Butylamino-4-(3-chloro-4-methyl-benzylamino)-cyclobut-3-ene-1,2-dione] |  | inhibition at 30 µM ([2]; Rattus norvegicus): 16.6 ± 3.6% |
| CCC(C)(C)Nc1c(NCc2ccc(C)c(Cl)c2)c(=O)c1=O [Example 91, 3-(3-Chloro-4-methyl-benzylamino)-4-(1,1-dimethyl-propylamino)-cyclobut-3-ene-1,2-dione] |  | inhibition at 30 µM ([2]; Rattus norvegicus): 30.7 ± 6.7% |
| CC(C)(CO)Nc1c(NCc2ccc(C#N)cc2Cl)c(=O)c1=O [Example 93, 3-Chloro-4-{[2-(2-hydroxy-1,1-dimethyl-ethylamino)-3,4-dioxo-cyclobut-1-enylamino]-methyl}-benzonitrile] | 8100 ± 2000 nM | inhibition at 30 µM ([2]; Rattus norvegicus): 44% |
| CCC(C)(C)Nc1c(NCc2cc(C)ccc2C)c(=O)c1=O [Example 94, 3-(2,5-Dimethyl-benzylamino)-4-(1,1-dimethyl-propylamino)-cyclobut-3-ene-1,2-dione] | 1910 ± 840 nM |  |
| Cc1ccc(C)c(CNc2c(NC(C)(C)C)c(=O)c2=O)c1 [Example 95, 3-(t-Butylamino)-4-(2.5-dimethyl-benzylamino)-cyclobut-3-ene-1,2-dione] | 1500 ± 300 nM |  |
| Cc1c(Cl)cccc1CNc1c(NC(C)(C)C)c(=O)c1=O [Example 96, 3-tert-Butylamino-4-(3-chloro-2-methyl-benzylamino)-cyclobut-3-ene-1,2-dione] | 1300 ± 300 nM |  |
| CCC(C)(C)Nc1c(NCc2cccc(Cl)c2C)c(=O)c1=O [Example 97, 3-(3-Chloro-2-methyl-benzylamino)-4-(1,1-dimethyl-propylamino)-cyclobut-3-ene-1,2-dione] | 280 ± 25 nM |  |
| CC(=O)N(Cc1ccc(C#N)cc1Cl)c1c(NC(C)(C)C)c(=O)c1=O [Example 98, N-(2-tert-Butylamino-3,4-dioxo-cyclobut-1-enyl)-N-(2-chloro-4-cyano-benzyl)-acetamide] | 20300 ± 790 nM |  |
| CCC(C)(C)Nc1c(NCc2cccc(Cl)c2Cl)c(=O)c1=O [Example 99, 3-(2,3-Dichloro-benzylamino)-4-(1,1-dimethyl-propylamino)-cyclobut-3-ene-1,2-dione] | 790 ± 470 nM |  |
| CC(C)(C)Nc1c(NCc2cccc(Cl)c2Cl)c(=O)c1=O [Example 100, 3-(t-Butylamino)-4-(2,3-dichloro-benzylamino)-cyclobut-3-ene-1,2-dione] | 1240 ± 170 nM |  |
| CCCC(=O)N(Cc1ccc(C#N)cc1Cl)c1c(NC(C)(C)C)c(=O)c1=O [Example 101] | 2360 ± 1600 nM |  |
